The results in this text go back to patent publication US20170204126A1, “MOLYBDENUM- AND TUNGSTEN-CONTAINING PRECURSORS FOR THIN FILM DEPOSITION” (L'Air Liquide, Société Anonyme pour l'Etude et …, priority 2014, published 2017).

A short description of series [1]: Solubility of the compound in common solvents. The settings on record: for Solubility in alkanes and toluene: at room temperature.
Experimental: Measurement Conditions: • Sample weight: 26.00 mg • Atmosphere: Nitrogen, 1 atmospheric pressure • Heating rate: 10° C.·min^−1 • Solubility of the compound in common solvents
Measurement Conditions: • Sample weight: 24.57 mg • Atmosphere: Nitrogen, 1 atmospheric pressure • Heating rate: 10° C.·min^−1 • Solubility of the compound in common solvents
Measurement Conditions: • Sample weight: 21.19 mg • Atmosphere: Nitrogen, 1 atmospheric pressure • Heating rate: 10° C.·min^−1 • Solubility of the compound in common solvents
Measurement Conditions: • Sample weight: 23.09 mg • Atmosphere: Nitrogen, 1 atmospheric pressure • Heating rate: 10° C.·min^−1 • Solubility of the compound in common solvents
Measurement Conditions: • Sample weight: 19.79 mg • Atmosphere: Nitrogen, 1 atmospheric pressure • Heating rate: 10° C.·min^−1 • Solubility of the compound in common solvents
Measurement Conditions: • Sample weight: 27.43 mg • Atmosphere: Nitrogen, 1 atmospheric pressure • Heating rate: 10° C.·min^−1 • Solubility of the compound in common solvents
Series [2] is described as follows: Vapor pressure.
Series [3] in a line: Thermal Stability Test (storage at 50° C.). In kind it is physicochemical. How it is done:
The product was stored at 50° C. for 14 and 44 days. The W(OsBu)6 content after 14 days was 1.1 atomic %. The W(OsBu)6 content after 44 days was 1.2 atomic %.

Consider `CC(C)C(C)[O][W](=[O])([O]C(C)C(C)C)([O]C(C)C(C)C)[O]C(C)C(C)C` (stereo not shown) [W(═O)(OCH(CH3)(CH(CH3)2))4], for which the “Solubility in common organic solvents” value in series [1] (hexane, acetone, chloroform, and/or toluene) is reported as “miscible”. In series [2] (at 147° C.), this molecule showed a Vapor pressure of 1 Torr.

Regarding “tungsten oxo sec-butoxide [W(═O)(OsBu)4]”, the “W(OsBu)6 content after storage” value is reported as 1.1 atomic % in series [3] (stored at 50° C. for 14 days) and 1.2 atomic % in series [3] (stored at 50° C. for 44 days).

As for `CC(C)C[O][W](=[O])([O]CC(C)C)([O]CC(C)C)[O]CC(C)C` [W(═O)(OiBu)4, W(═O)(OCH2CH(CH3)2)4], in series [1] (toluene up to 80° C.), the “Solubility in alkanes and in toluene” value is reported as “very low solubility”.

For the molecule `CCC[O][W](=[O])([O]CCC)([O]CCC)[O]CCC` [W(═O)(OnPr)4], in series [1], the “Solubility in alkanes and toluene” value was “very low solubility”.

Regarding `CCCC[O][W](=[O])([O]CCCC)([O]CCCC)[O]CCCC` [W(═O)(OnBu)4], in series [1], the “Solubility in alkanes and toluene” value is given as “very low solubility”.

Take `CC(C)[O][W](=[O])([O]C(C)C)([O]C(C)C)[O]C(C)C` [W(═O)(OiPr)4, W(═O)(OCH(CH3)2)4]: in series [1] (alkanes), the Solubility in alkanes result is recorded as “very low solubility”. Also, the Solubility in toluene result in series [1] (toluene at 60° C.) is reported as “soluble”. Moreover, in series [2] (at 103° C.), the Vapor pressure was determined as 1 Torr.
